Publication PMC5822683 (Inflammation, 2014)
Where a SMILES comes first, the peptide text is derived from it.

What was measured:
[1] = ref [21], [48]; cited from earlier work
[2] = tested on: IL-8-stimulated human neutrophils
[3] = tested on: LPS-stimulated whole human blood; details: 40 μg/ml, LPS 1 μg/ml, 3 h at 37 °C
[4] = tested on: TNF-α-stimulated whole human blood; details: 40 μg/ml, human TNF-α 10 ng/ml, 6 h at 37 °C, n=4 (Fig. 2)
leukocytes = details: ref [24]; cited from earlier work
[5] = tested on: lipopolysaccharide-binding protein (LBP); details: ref [21]; cited from earlier work
[6] = compared with human apoA-I; ref [37]; cited from earlier work
primary human monocytes = details: ref [28]; cited from earlier work
[7] = tested on: LPS-stimulated isolated human leukocytes; details: 40 μg/ml, LPS 1 μg/ml, n=3
rodents = details: compared with L-4F doses studied here (Fig. S4)
paraoxonase 1 = details: ref [20], [41]; cited from earlier work
[8] = tested on: animal models of acute inflammation / severe sepsis; details: cited from earlier work
[9] = tested on: LPS-stimulated isolated human neutrophils; details: 50 % donor plasma, 40 μg/ml
[10] = tested on: LPS-stimulated isolated human neutrophils
[11] = statement in the discussion, no reference given; cited from earlier work
[12] = tested on: human neutrophils stimulated by septic patient serum; details: ref [24], cited from earlier work
[13] = tested on: human monocyte-derived macrophages; details: ref [29]; cited from earlier work
[14] = tested on: patients with high-risk cardiovascular disease; details: selected groups of patients with high-risk cardiovascular disease; ref [55], [56]; cited from earlier work

## CC(=O)N[C@@H](CC(=O)O)C(=O)N[C@@H](Cc1c[nH]c2ccccc12)C(=O)N[C@@H](Cc1ccccc1)C(=O)N[C@@H](CCCCN)C(=O)N[C@@H](C)C(=O)N[C@@H](Cc1ccccc1)C(=O)N[C@@H](Cc1ccc(O)cc1)C(=O)N[C@@H](CC(=O)O)C(=O)N[C@@H](CCCCN)C(=O)N[C@H](C(=O)N[C@@H](C)C(=O)N[C@@H](CCC(=O)O)C(=O)N[C@@H](CCCCN)C(=O)N[C@@H](Cc1ccccc1)C(=O)N[C@@H](CCCCN)C(=O)N[C@@H](CCC(=O)O)C(=O)N[C@@H](C)C(=O)N[C@@H](Cc1ccccc1)C(N)=O)C(C)C [L-4F] (Ac-DWFKAFYDKVAEKFKEAF-NH2)
[1]
  interaction with LPS (co-localization of Bodipy-LPS and ^14C-L-4F in FPLC fractions): interaction of LPS and L-4F was strongly suggested
[2]
  effect on IL-8-induced increase of CD11b expression: only minimal effect
  effect on IL-8-induced increase of lipid rafts abundance: only minimal effect
[3]; ELISA, n=4 (Fig. 1)
  effect on inflammatory response to LPS (TNF-α and IL-6): inhibits inflammatory response to LPS in blood to an equal extent
[3]; n=4/group, *P<0.05 vs. saline-treated LPS (Fig. 1A)
  plasma level of TNF-α: reduces plasma levels of TNF-α
[3]; n=4/group, *P<0.05 vs. saline-treated LPS (Fig. 1B)
  plasma level of IL-6: reduces plasma levels of TNF-α (A) and IL-6
[4]
  effect on TNF-α-mediated elevation of plasma IL-6: does not reduce plasma levels of IL-6
leukocytes
  inhibition of binding of LPS to leukocytes: inhibit binding of LPS to leukocytes
[5]
  competition with LBP for binding with LPS: compete with lipopolysaccharide-binding protein (LBP) for binding with LPS
[6]
  binding affinity for pro-inflammatory oxidized lipids: binds pro-inflammatory oxidized lipids with higher affinity than human apoA-I
Primary human monocytes
  cholesterol efflux and lipid raft abundance: stimulate cholesterol efflux and reduce lipid raft abundance
[7]; 5 or 50 % donor plasma, lucigenin 10 μM, 3 h at 37 °C, both P<0.05 vs. LPS (Fig. 9)
  effect on LPS-mediated chemiluminescence (rate and peak): inhibits the rate as well as peak of LPS-mediated chemiluminescence
[7]; 50 % plasma, 3 h, NS vs. apoA-I
  inhibition of oxidative stress, L-4F vs. apoA-I: the inhibitory effects of L-4F and apoA-I are similar
rodents
  tolerability in rodents: rodents were able to tolerate L-4F in much higher doses
Paraoxonase 1
  HDL-associated paraoxonase 1 activity: increasing HDL-associated paraoxonase 1 activity
[8]; L-4F, ref [22]–[24]
  dose with high efficiency in animal models of severe sepsis: 10 mg/kg
[8]; cecal ligation and puncture, ref [22]
  effect in cecal ligation and puncture model of polymicrobial sepsis: has protective effects
[8]; ref [22]–[25]
  effect in animal models of acute inflammation: reduces inflammatory response and improves survival
[9]; LPS 1 μg/ml, 30 min, 1 h, 3 h (Fig. 5A)
  effect on LPS-induced TNF-α levels: inhibit this effect (P<0.05 vs. LPS, for 30 min and 1 h, Fig. 5A)
[9]; LPS 1 μg/ml, 30 min, 1 h, 3 h (Fig. 5B)
  effect on LPS-mediated MPO elevation: only inhibitory effect of L-4F reaches statistical significance (P<0.05 vs. LPS, for 30 min and 3 h, Fig. 5B)
[9]; LPS 1 μg/ml, 3 h, cell media, n=3, ELISA (Fig. 6)
  effect on LPS-mediated IL-6 increase: significantly inhibits LPS-mediated IL-6 increase (P<0.05 vs. LPS)
[9]; LPS-stimulated neutrophils
  comparison with apoA-I, LPS-mediated increase in IL-6 levels: tended to be superior in inhibiting LPS-mediated increase in IL-6 levels
[10]
  effect of agent alone on CD11b expression and lipid raft abundance: Neither L-4F alone nor apoA-I alone affects CD11b expression and lipid raft abundance
  effect on LPS-increased CD11b expression: inhibits this effect (P<0.05 vs. LPS, for L-4F at all time points and for apoA-I at 30 min, Fig. 3A, B)
  effect on LPS-increased lipid raft abundance: inhibits this effect (P<0.05 vs. LPS, for L-4F at 1 and 3 h and for apoA-I at 1 h, Fig. 3C, D)
[11]
  water solubility: high water solubility
[12]; concentration at which effective, L-4F
  effective concentration: 40 µg/mL
[12]
  activation of neutrophils by septic patient serum: inhibits activation of human neutrophils stimulated by septic patient serum

## Ac-DWFKAFYDKVAEKFKEAF-NH2 [4F]
[8]; ref [19]–[21]
  anti-inflammatory properties: exerts strong anti-inflammatory properties
[13]
  disruption of rafts and responsiveness of macrophages to LPS: attenuating the responsiveness of macrophages to LPS
[14]
  safety profile in patients: acceptable safety profile
